One series has as its target T1, human MCH-1 receptor (Homo sapiens, UniProt Q99705).
T1 construct: expressed in transfected cells
The series can be described thus: Ca2+ mobilization experiment for the MCH-1 receptor (FLIPR), inhibition of MCH-induced Ca2+ mobilization. In kind it is cell-based. The following applies: CHO cells stably expressing human MCH-1 receptor, inhibition of MCH-induced Ca2+ response, read-out: MCH-1 pIC50 (converted). Summed up: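 Calcium-dye loading (kit with probenecid) of CHO cells stably expressing human MCH-1 ran 90 min at 37C. Cells were then preincubated with compound for 20 min at RT before a submaximal MCH challenge, and Ca2+ was recorded by FLIPR. Responses were expressed as % of compound-free response, and pIC50 came from sigmoidal fits.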
A general note: Calcium flux is commonly read through the fluorescence of an indicator in the cells.

In another series the target is T2, MCH-1 receptor (Rattus norvegicus, UniProt P97639).
T2 construct: host or cells: rodents in vivo
T2 sequence (P97639 whole entry): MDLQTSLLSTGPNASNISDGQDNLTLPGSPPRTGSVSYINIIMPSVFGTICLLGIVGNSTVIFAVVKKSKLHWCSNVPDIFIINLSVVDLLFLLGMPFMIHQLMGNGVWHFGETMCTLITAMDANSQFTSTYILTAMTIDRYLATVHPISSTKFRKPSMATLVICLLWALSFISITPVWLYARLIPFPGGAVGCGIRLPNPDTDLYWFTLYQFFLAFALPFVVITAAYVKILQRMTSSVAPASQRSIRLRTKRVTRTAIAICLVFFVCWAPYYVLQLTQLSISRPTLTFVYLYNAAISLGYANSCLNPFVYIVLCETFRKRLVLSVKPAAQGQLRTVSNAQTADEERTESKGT
The following applies: rodents tests; Nat. Med. (2002) 8, 825-830; cited from earlier work.

Molecules are shown by their SMILES. Where a name gives a salt, the structure may show the parent alone.

What is called melting point is the temperature, or range, at which the solid turns liquid.

T1 sequence (Q99705 whole entry): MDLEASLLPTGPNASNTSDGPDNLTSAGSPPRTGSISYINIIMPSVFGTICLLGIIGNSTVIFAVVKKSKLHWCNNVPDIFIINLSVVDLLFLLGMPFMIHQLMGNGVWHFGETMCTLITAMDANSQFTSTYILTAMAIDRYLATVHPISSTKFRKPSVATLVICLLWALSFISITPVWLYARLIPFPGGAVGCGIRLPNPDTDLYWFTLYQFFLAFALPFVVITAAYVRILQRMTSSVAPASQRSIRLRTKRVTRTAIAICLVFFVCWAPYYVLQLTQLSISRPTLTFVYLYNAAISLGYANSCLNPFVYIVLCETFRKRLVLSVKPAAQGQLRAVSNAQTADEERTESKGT

`COc1cc(-n2ccnc(NCCc3ccccc3)c2=O)ccc1N1CCC(N2CCOCC2)C1` (stereo not shown) [3-21] yielded a melting point of more than 300 °C. Also, the IC50 on human MCH-1 receptor was 79.4 nM.

`COc1cc(-n2ccnc(NCCc3ccccc3)c2=O)ccc1OC1CCNC1` (stereo not shown) [3-31] had a melting point of 151.6 °C. Moreover, the IC50 at human MCH-1 receptor is 39.8 nM.

As to `O=c1c(NCCc2ccccc2)nccn1CCc1ccc(CN2CCCC2)cc1` [9-01], the melting point is 177 °C. For the same compound, the IC50 on human MCH-1 receptor was 20 nM.

Turning to `COc1cc(-n2ccnc(SCCc3ccccc3)c2=O)ccc1NC(=O)CN1CCCC1` [6-18], the melting point is more than 300 °C. Also, the IC50 at human MCH-1 receptor was 316 nM.

The compound `CC(=O)N1CCN(CCOc2ccc(-n3ccnc(NCCc4ccccc4)c3=O)cc2Cl)CC1` [3-83] returned a melting point of 121.8 °C. In addition, the IC50 on human MCH-1 receptor was 50.1 nM.

Take `COc1cc(-n2ccnc(SCCc3ccccc3)c2=O)ccc1OCCN1CCCC1` [2-11]: the melting point came out at 79.4 °C. For the same compound, at human MCH-1 receptor, the IC50 was 20 nM.

Regarding `COc1cc(-n2ccnc(SCCc3ccccc3)c2=O)ccc1N1CCC(N(C)C(C)=O)C1` (stereo not shown) [6-08], the melting point was 105.5 °C. For the same compound, on human MCH-1 receptor, the IC50 is 31.6 nM.

As to `COc1cc(-n2ccnc(NCCOc3ccccc3)c2=O)ccc1OCCN1CCC(F)CC1` (as salt: HCl) [1-70], the melting point came out at 234.9 °C.

The compound `CC(=O)N(C)CCOc1ccc(-n2ccnc(NCCOc3ccccc3)c2=O)cc1` [1-30] had a melting point of 105.9 °C. Besides, the IC50 at human MCH-1 receptor was 501 nM.

In turn, `O=c1c(NCCc2ccccc2)nccn1-c1ccc(OCCN2CCCC2)c(Cl)c1` [2-03] showed a melting point of 120.2 °C. The IC50 on human MCH-1 receptor was 31.6 nM.

`CNC1CCN(c2ccc(-n3ccnc(SCCc4ccccc4)c3=O)cc2OC)C1` (stereo not shown) [6-04] gave a melting point of 113.2 °C. For the same compound, the IC50 at human MCH-1 receptor is 25.1 nM.

The compound `COc1cc(-n2ccnc(NCCc3ccccc3)c2=O)ccc1NCCCN1CCOCC1` [3-30] registered a melting point of more than 300 °C. Moreover, the IC50 at human MCH-1 receptor was 63.1 nM.

The compound `COc1cc(-n2ccnc(NCCOc3ccccc3)c2=O)ccc1OCCN1CCCC1` (as salt: HCl) [1-67] yielded a melting point of 198.7 °C.

Regarding `O=c1c(NCCc2ccccc2)nccn1-c1ccc(OCCN2CCC(O)CC2)c(Cl)c1` [3-81], the melting point is 151.2 °C. Also, the IC50 at human MCH-1 receptor is 25.1 nM.

For the compound `CN(CCO)CCOc1ccc(-n2ccnc(NCCOc3ccccc3)c2=O)cc1` [1-26], the melting point is 103.6 °C. In addition, the IC50 on human MCH-1 receptor is 251 nM.

For `COCC1=C(C(=O)OC)[C@H](c2ccc(F)c(F)c2)N(C(=O)NCCCN2CCC(c3cccc(NC(C)=O)c3)CC2)C(=O)N1` [SNAP-7941], the “antidepressant- and anxiolytic-like effects” value on MCH-1 receptor was “antidepressant- and axiolytic-like affects”.

On to `COc1cc(-n2ccnc(NCCc3ccccc3)c2=O)ccc1OCCN1CCCC1` [2-04], for which the melting point is 101.1 °C. Further, the IC50 at human MCH-1 receptor is 39.8 nM.

Consider `COc1cc(-n2ccnc(SCCc3ccccc3)c2=O)ccc1N1CCC(N(C)C)C1` (stereo not shown) [6-07], for which the melting point came to 126.5 °C. Besides, the IC50 at human MCH-1 receptor was 20 nM.

With `O=c1c(NCCOc2ccccc2)nccn1-c1ccc(OCCN2CCOCC2)cc1` [1-44], the melting point is 138.1 °C. The IC50 on human MCH-1 receptor is 501 nM.

`COc1cc(-n2ccnc(SCCc3ccccc3)c2=O)ccc1N1CC[C@H](N(C)C)C1` [6-05]: the IC50 at human MCH-1 receptor is 12.6 nM.

Regarding `O=c1c(NCCOc2ccccc2)nccn1-c1ccc(OCCN2CCCC2)c(CO)c1` [1-51], the IC50 at human MCH-1 receptor was 126 nM.

As to `COc1cc(-n2ccnc(NCCOc3ccccc3)c2=O)ccc1OCCN1CCC(O)C1` (stereo not shown) [1-68], the IC50 at human MCH-1 receptor is 126 nM.

With `COc1cc(-n2ccnc(N3CCCC(c4ccccc4)C3)c2=O)ccc1OCCN1CCCC1` (stereo not shown) [4-01], the IC50 on human MCH-1 receptor is 1260 nM.

As to `COc1ccc(CCNc2nccn(-c3ccc(OCCN4CCCC4)c(OC)c3)c2=O)cc1` [2-36], the IC50 at human MCH-1 receptor was 50.1 nM.

For `COc1cc(-n2ccnc(NCCc3ccccc3)c2=O)ccc1OCCNC(=O)CN(C)C` [3-40], the IC50 on human MCH-1 receptor is 79.4 nM.

In the case of `CN1CCN(c2ccc(-n3ccnc(NCCc4ccccc4)c3=O)cc2Cl)CC1` [3-78], the IC50 on human MCH-1 receptor was 50.1 nM.

With `COc1cc(-n2ccnc(NCCc3ccccc3)c2=O)ccc1OCCN1CCC(O)C1` (stereo not shown) [3-45], on human MCH-1 receptor, the IC50 is 31.6 nM.

Source of the values: patent US8329704B2, “Substituted pyrazinone derivatives for use in MCH-1 mediated diseases” (Janssen Pharmaceutica, N.V., priority 2005, dated 2012).
